Assays:
Type in all cases: in vivo
[1] = test system: redroot pigweed (Amaranthus retroflexus, AMARE); assay: Pre-emerge test, greenhouse herbicide activity screening; settings: rated 14 days after application, 0 = no damage, 100 = complete death
In short: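 Visual ratings on a 0-100 scale (0 no damage, 100 all plants dead) were taken at 14 days after treatment. Rates of 15-1000 g ai/ha in acetone, 187 l/ha, were sprayed onto soil one day after planting (pre-emerge) or onto 2-3 leaf plants with 0.25% v/v surfactant (post-emerge).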

[2] = test system: common ragweed (Ambrosia artemisizfolia L., AMBEL); assay: Post-emerge test, greenhouse herbicide activity screening; settings: post-emerge, 14 days after application, rating scale 0-100
In short: (§1)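 Fourteen days after spraying, crop and weed injury was graded visually from 0, no effect, to 100, every plant dead. Test substances were dissolved in acetone and applied at 15–1000 g ai/ha with a flat-fan nozzle. Application was either pre-emergence, one day after sowing, or post-emergence at the 2–3 leaf stage.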

[3] = test system: lambsquarters (Chenopodium album, CHEAL); assay: as above; settings: post-emerge, 14 days after application, rating scale 0-100
In short: as §1

[4] = test system: barnyardgrass (Echinochloa crus-galli, ECHCG); assay: as above; settings: post-emerge, 14 days after application, rating scale 0-100
In short: as §1

[5] = test system: green foxtail (Setaria viridis, SETVI); assay: as above; settings: post-emerge, 14 days after application, rating scale 0-100
In short: as §1

[6] = test system: large crabgrass (Digitaria sanguinalis, DIGSA); assay: as above; settings: post-emerge, 14 days after application, rating scale 0-100
In short: as §1

[7] = test system: velvetleaf (Abutilon theophrasti, ABUTH); assay: as above; settings: post-emerge, 14 days after application, rating scale 0-100
In short: as §1

[8] = test system: johnsongrass (Sorghum halepense, SORHA); assay: as above; settings: post-emerge, 14 days after application, rating scale 0-100
In short: as §1

[9] = test system: redroot pigweed (Amaranthus retroflexus, AMARE); assay: as above; settings: post-emerge, 14 days after application, rating scale 0-100
In short: as §1

[10] = test system: ivyleaf morningglory (Ipomoea hederacea, IPOHE); assay: as above; settings: post-emerge, 14 days after application, rating scale 0-100
In short: as §1

[11] = test system: sicklepod (Cassia obtusifolia, CASOB); assay: as above; settings: post-emerge, 14 days after application, rating scale 0-100
In short: as §1

[12] = test system: upland rice (Oryza sp., var. Tebonnet, RICE); assay: Pre-emerge test, crop safety; settings: rated 14 days after application, 0 = no damage, 100 = complete death
In short: as §1

[13] = test system: field corn (Zea mays L., var. Dekalb 535, CORN); assay: Pre-emerge test, crop safety; settings: rated 14 days after application, 0 = no damage, 100 = complete death
In short: as §1

[14] = test system: upland rice (Oryza sp., var. Tebonnet, RICE); assay: Post-emerge test, crop safety; settings: post-emerge, 14 days after application, rating scale 0-100
In short: (§2)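 Herbicidal damage is scored 0 (none) to 100 (complete plant death) two weeks after a simulated field spray. Rates span 15–1000 g ai/ha, delivered in acetone at 187 l/ha. For post-emergence treatments, plants have 2–3 leaves and the spray carries 0.25% v/v non-ionic surfactant.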

[15] = test system: field corn (Zea mays L., var. Dekalb 535, CORN); assay: Post-emerge test, crop safety; settings: post-emerge, 14 days after application, rating scale 0-100
In short: as §2

[16] = test system: common ragweed (Ambrosia artemisizfolia L., AMBEL); assay: Pre-emerge test, greenhouse herbicide activity screening; settings: rated 14 days after application, 0 = no damage, 100 = complete death
In short: as §2

[17] = test system: lambsquarters (Chenopodium album, CHEAL); assay: as above; settings: rated 14 days after application, 0 = no damage, 100 = complete death
In short: as §2

[18] = test system: barnyardgrass (Echinochloa crus-galli, ECHCG); assay: as above; settings: rated 14 days after application, 0 = no damage, 100 = complete death
In short: as §2

[19] = test system: green foxtail (Setaria viridis, SETVI); assay: as above; settings: rated 14 days after application, 0 = no damage, 100 = complete death
In short: as §2

[20] = test system: large crabgrass (Digitaria sanguinalis, DIGSA); assay: as above; settings: rated 14 days after application, 0 = no damage, 100 = complete death
In short: as §2

[21] = test system: velvetleaf (Abutilon theophrasti, ABUTH); assay: as above; settings: rated 14 days after application, 0 = no damage, 100 = complete death
In short: as §2

[22] = test system: johnsongrass (Sorghum halepense, SORHA); assay: as above; settings: rated 14 days after application, 0 = no damage, 100 = complete death
In short: as §2

[23] = test system: ivyleaf morningglory (Ipomoea hederacea, IPOHE); assay: as above; settings: rated 14 days after application, 0 = no damage, 100 = complete death
In short: as §2

[24] = test system: sicklepod (Cassia obtusifolia, CASOB); assay: as above; settings: rated 14 days after application, 0 = no damage, 100 = complete death
In short: as §2

`COc1c(Cl)cc(F)c(-n2c(=O)cc(C(F)(F)F)n(C)c2=O)c1NC(=O)c1ccc(Br)cc1` [2-61] was tested, and the “Pre-emerge Herbicidal Activity, phytotoxicity rating (0-100), AMARE” value ([1]; 63 g ai/ha) was 100, the “Pre-emerge Herbicidal Activity, phytotoxicity rating (0-100), AMARE” value ([1]; 250 g ai/ha) was 100 and the “phytotoxicity rating AMBEL” value ([2]; 63 g ai/ha) was 100. For the same compound, the “phytotoxicity rating AMBEL” value ([2]; 250 g ai/ha) was 95, the “phytotoxicity rating CHEAL” value ([3]; 63 g ai/ha) was 100 and the “phytotoxicity rating CHEAL” value ([3]; 250 g ai/ha) was 100. The “phytotoxicity rating ECHCG” value ([4]; 63 g ai/ha) was 40, the “phytotoxicity rating ECHCG” value ([4]; 250 g ai/ha) was 70 and the “phytotoxicity rating SETVI” value ([5]; 63 g ai/ha) was 60. For the same compound, the “phytotoxicity rating SETVI” value ([5]; 250 g ai/ha) was 90, the “phytotoxicity rating DIGSA” value ([6]; 63 g ai/ha) was 20 and the “phytotoxicity rating DIGSA” value ([6]; 250 g ai/ha) was 50. The “phytotoxicity rating ABUTH” value ([7]; 63 g ai/ha) was 100, the “phytotoxicity rating ABUTH” value ([7]; 250 g ai/ha) was 100 and the “phytotoxicity rating SORHA” value ([8]; 63 g ai/ha) was 20. For the same compound, the “phytotoxicity rating SORHA” value ([8]; 250 g ai/ha) was 70, the “phytotoxicity rating AMARE” value ([9]; 63 g ai/ha) was 100 and the “phytotoxicity rating AMARE” value ([9]; 250 g ai/ha) was 100. The “phytotoxicity rating IPOHE” value ([10]; 63 g ai/ha) was 100, the “phytotoxicity rating IPOHE” value ([10]; 250 g ai/ha) was 100 and the “phytotoxicity rating CASOB” value ([11]; 63 g ai/ha) was 100. The “phytotoxicity rating CASOB” value ([11]; 250 g ai/ha) was 100, the “Pre-emerge phytotoxicity rating (0-100), crop damage, RICE” value ([12]; 63 g ai/ha) was 75 and the “Pre-emerge phytotoxicity rating (0-100), crop damage, RICE” value ([12]; 250 g ai/ha) was 95. For the same compound, the “Pre-emerge phytotoxicity rating (0-100), crop damage, CORN” value ([13]; 63 g ai/ha) was 10, the “Pre-emerge phytotoxicity rating (0-100), crop damage, CORN” value ([13]; 250 g ai/ha) was 95 and the “phytotoxicity rating RICE” value ([14]; 63 g ai/ha) was 60. For the same compound, the “phytotoxicity rating RICE” value ([14]; 250 g ai/ha) was 90, the “phytotoxicity rating CORN” value ([15]; 63 g ai/ha) was 35 and the “phytotoxicity rating CORN” value ([15]; 250 g ai/ha) was 90. The “Pre-emerge Herbicidal Activity, phytotoxicity rating (0-100), AMBEL” value ([16]; 63 g ai/ha) was 80, the “Pre-emerge Herbicidal Activity, phytotoxicity rating (0-100), AMBEL” value ([16]; 250 g ai/ha) was 100 and the “Pre-emerge Herbicidal Activity, phytotoxicity rating (0-100), CHEAL” value ([17]; 63 g ai/ha) was 100. For the same compound, the “Pre-emerge Herbicidal Activity, phytotoxicity rating (0-100), CHEAL” value ([17]; 250 g ai/ha) was 100, the “Pre-emerge Herbicidal Activity, phytotoxicity rating (0-100), ECHCG” value ([18]; 63 g ai/ha) was 85 and the “Pre-emerge Herbicidal Activity, phytotoxicity rating (0-100), ECHCG” value ([18]; 250 g ai/ha) was 100. The “Pre-emerge Herbicidal Activity, phytotoxicity rating (0-100), SETVI” value ([19]; 63 g ai/ha) was 10, the “Pre-emerge Herbicidal Activity, phytotoxicity rating (0-100), SETVI” value ([19]; 250 g ai/ha) was 100 and the “Pre-emerge Herbicidal Activity, phytotoxicity rating (0-100), DIGSA” value ([20]; 63 g ai/ha) was 90. The “Pre-emerge Herbicidal Activity, phytotoxicity rating (0-100), DIGSA” value ([20]; 250 g ai/ha) was 100, the “Pre-emerge Herbicidal Activity, phytotoxicity rating (0-100), ABUTH” value ([21]; 63 g ai/ha) was 100 and the “Pre-emerge Herbicidal Activity, phytotoxicity rating (0-100), ABUTH” value ([21]; 250 g ai/ha) was 100. For the same compound, the “Pre-emerge Herbicidal Activity, phytotoxicity rating (0-100), SORHA” value ([22]; 63 g ai/ha) was 80, the “Pre-emerge Herbicidal Activity, phytotoxicity rating (0-100), SORHA” value ([22]; 250 g ai/ha) was 100 and the “Pre-emerge Herbicidal Activity, phytotoxicity rating (0-100), IPOHE” value ([23]; 63 g ai/ha) was 90. For the same compound, the “Pre-emerge Herbicidal Activity, phytotoxicity rating (0-100), IPOHE” value ([23]; 250 g ai/ha) was 100, the “Pre-emerge Herbicidal Activity, phytotoxicity rating (0-100), CASOB” value ([24]; 63 g ai/ha) was 40 and the “Pre-emerge Herbicidal Activity, phytotoxicity rating (0-100), CASOB” value ([24]; 250 g ai/ha) was 100.

Source: US6355799B1, “Substituted benzene compounds, process for their preparation, and herbicidal and defoliant compositions containing them” (ISK Americas Incorporated, priority 1997, dated 2002)
